Data from publication PMC12715794, “Comparative Characterization of Oxidative Enzymes for Arabinoxylan and Protein Cross-Linking via Ferulic Acid and Tyrosine in Model Systems” (Journal of Agricultural and Food Chemistry, 2025).
Where a name gives a salt, the structure may show the parent alone. Read-outs that look alike come from different tables or passages of the source. Each block holds one molecule with its values, some of them ahead of it.

Legend:
[1] = tested on: T1, TvL; laccase from Trametes versicolor; details: at pH and temperature optima; McIlvaine buffer
T1 construct: gene LCC2

[2] = target: T2, AnG; glucose oxidase from Aspergillus niger (Aspergillus niger, UniProt P13006); assay: ABTS-HrP-coupled spectrophotometric assay, […] nm; type: biochemical; details: 16 mM glucose, 1 mM ABTS, excess HrP (0.7 mg/mL); McIlvaine buffer
T2 construct: gene gox
T2 sequence (P13006 23-605): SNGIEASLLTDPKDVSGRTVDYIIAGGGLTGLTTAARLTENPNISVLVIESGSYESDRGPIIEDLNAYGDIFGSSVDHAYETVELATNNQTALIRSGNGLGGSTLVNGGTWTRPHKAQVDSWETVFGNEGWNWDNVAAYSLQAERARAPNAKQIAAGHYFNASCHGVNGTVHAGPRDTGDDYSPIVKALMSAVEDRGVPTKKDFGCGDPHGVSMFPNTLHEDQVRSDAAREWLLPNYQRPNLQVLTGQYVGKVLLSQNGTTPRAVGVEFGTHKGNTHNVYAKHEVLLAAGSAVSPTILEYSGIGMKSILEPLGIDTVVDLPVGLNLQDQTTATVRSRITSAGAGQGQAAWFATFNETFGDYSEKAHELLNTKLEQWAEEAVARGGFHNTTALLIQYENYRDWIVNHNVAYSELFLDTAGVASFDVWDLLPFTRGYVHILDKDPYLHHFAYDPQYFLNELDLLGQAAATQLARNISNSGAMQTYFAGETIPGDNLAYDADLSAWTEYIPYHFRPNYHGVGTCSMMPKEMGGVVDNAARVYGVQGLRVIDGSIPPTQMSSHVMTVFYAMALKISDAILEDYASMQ

[3] = tested on: T1, TvL; laccase from Trametes versicolor; details: at pH and temperature optima; McIlvaine buffer; enzyme alone
[4] = tested on: T3, AbT; tyrosinase from Agaricus bisporus; assay: HTyr-MBTH spectrophotometric assay, […] nm; type: biochemical; details: at pH and temperature optima; McIlvaine buffer; excess MBTH, 2% DMF
T3 construct: gene PPO3

[5] = tested on: T1, TvL; laccase from Trametes versicolor; assay: HTyr-MBTH spectrophotometric assay, […] nm; type: biochemical; details: at pH and temperature optima; McIlvaine buffer; excess MBTH, 2% DMF
[6] = tested on: T3, AbT; tyrosinase from Agaricus bisporus; assay: spectrophotometric, product formation at […] nm; type: biochemical; details: at pH and temperature optima; McIlvaine buffer; enzyme alone

Compound: OC[C@H]1OC(O)[C@H](O)[C@@H](O)[C@@H]1O (stereo partly drawn) [D-glucose]
ABTS-HrP-coupled spectrophotometric assay, 415 nm [2]: For AnG, glucose as a substrate was converted to H2O2

Compound: N[C@@H](Cc1ccc(O)cc1)C(=O)O [Y, L-tyrosine]
Km [6]: 504 µM

More lines, now with the values ahead:

Km [1]: 36 µM
Compound: CCn1c(=NN=c2sc3cc(S(=O)(=O)O)ccc3n2CC)sc2cc(S(=O)(=O)O)ccc21 [ABTS, 2,2′-azino-bis(3-ethylbenzothiazoline-6-sulfonic acid) diammonium salt]

Km [3]: 57 µM
Compound: COc1cc(/C=C/C(=O)O)ccc1O [FA, trans-ferulic acid]

Km [4]: 44 µM
Km [5]: 73 µM
Compound: OCCc1ccc(O)c(O)c1 [HTyr, hydroxytyrosol]
